Source: US9302999B2, “Substituted triazoles as herbicides” (E. I. DU PONT DE NEMOURS AND COMPANY, priority 2012, dated 2016)

Legend:
Oilseed Rape = experiment: Test C preemergence: oilseed rape; assay type: in vivo; conditions: scale 0 (no effect) to 100 (complete control)
Waterhemp = experiment: Test C preemergence: waterhemp; assay type: in vivo, Amaranthus rudis; conditions: scale 0 to 100, 0 no effect, 100 complete control

Structure (SMILES) | Plant response rating, Oilseed Rape (Oilseed Rape; 16 g ai/ha) | Plant response rating, Waterhemp (Waterhemp; 125 g ai/ha) | Plant response rating, Oilseed Rape (Oilseed Rape; 31 g ai/ha) | Plant response rating, Waterhemp (Waterhemp; 250 g ai/ha)
CCOc1nn(-c2ccc(Br)cc2)nc1Cc1ccnc(C(F)(F)F)c1 [Compound 189] | 5 | 100 | – | –
CCc1nn(-c2ccc(F)cc2)nc1Oc1ccnc(C(F)(F)F)c1 [Compound 166] | – | 100 | 50 | 100
CCCc1nn(-c2ccc(C(F)(F)F)c(F)c2)nc1Oc1ccnc(C(F)(F)F)c1 [Compound 185] | – | – | 60 | –
